The source made the active and inactive calls.
Legend:
[1] = HIV-1 AD8 envelope cell-cell fusion blockers – cherry-pick, dose response (AID 652062); format: functional, cell-based;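 also: luciferase signal from cell-cell fusion driven by HIV-1 clade B AD8 Env; potency is for inhibitors of fusion seen as a drop in luminescence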
HEK293 [2] = experiment: cells; format: functional, cell-based; details: Homo sapiens
HEK293 [3] = experiment: cells; format: functional, cell-based; details: Homo sapiens; remark: listed apart in the source
HEK293 [4] = experiment: NOD2 signaling inhibitors in MDP-stimulated cells, cell-based, uHTS, luminescence (AID 2001); format: functional; details: Homo sapiens
HEK293 [5] = experiment: inhibition of NOD1-driven NF-kB reporter – cell-based, luminescence, uHTS, primary screen (AID 1578); format: functional; details: Homo sapiens
[6] = biological target: Nucleotide-binding oligomerization domain-containing protein 2 (Homo sapiens, UniProt Q9HC29); experiment: inhibition of NOD2-driven NF-kB reporter – cell-based, luminescence, uHTS, HEK293 (AID 1566); format: functional
INS1 = experiment: INS-1E survival protection against cytokine death – cell-based, luminescence, retest, dose response (AID 449756); format: functional; details: Rattus norvegicus;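 also: cell death triggered by IL-1 beta plus TNF-alpha plus IFN-gamma mixture; protective hits raise ATP signal compared with cytokine alone wells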
Galanin receptor type 2 = biological target: T1, Galanin receptor type 2 (Homo sapiens, UniProt O43603); experiment: Dose Response cell-based high-throughput screening assay to identify antagonists of galanin receptor 2 (GALR2). [Related pubchem assays: 828, 866 ]; format: functional
T1 sequence (O43603 whole entry): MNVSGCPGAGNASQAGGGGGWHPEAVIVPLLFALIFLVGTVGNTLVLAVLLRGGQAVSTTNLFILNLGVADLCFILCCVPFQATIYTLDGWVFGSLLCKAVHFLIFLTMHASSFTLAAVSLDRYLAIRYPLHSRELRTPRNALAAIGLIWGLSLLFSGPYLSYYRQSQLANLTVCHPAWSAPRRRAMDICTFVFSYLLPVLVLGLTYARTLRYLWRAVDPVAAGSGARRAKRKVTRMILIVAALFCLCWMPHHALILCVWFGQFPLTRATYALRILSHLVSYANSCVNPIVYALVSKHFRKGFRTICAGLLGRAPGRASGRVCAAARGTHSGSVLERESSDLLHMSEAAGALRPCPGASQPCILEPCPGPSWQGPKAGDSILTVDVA

HEK293 [7] = experiment: cells; format: functional, cell-based; details: Homo sapiens; remark: listed apart in the source
[8] = HEK-293T viability loss after treatment – luminescence, T-cell screen hits, cytotoxicity control for TCR NF-kB inhibitor project, dose response (AID 489026); format: functional, cell-based;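 also: cells exposed to compound about 14 hours before the viability readout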
[9] = luciferase reporter signal reduction – luminescence, H4-C neuroglioblastoma cells, dose response (AID 2458); format: functional, cell-based;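 also: H4 neuroglioblastoma cells stably carrying a luciferase reporter gene fusion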
cells [10] = experiment: cells
[11] = Luminescence-based dose response cell-based high throughput screening assay for cytotoxic compounds using the IEC-6 intestinal epithelial cell line. [Related pubchem assays: 1858 (Summary AID.), 1825 (Counterscreen.), 1907 (Confirmation screen.)]; format: functional
cells [12] = format: functional, cell-based
[13] = alpha-synuclein stem-loop translation blockers – luminescence, H4 neuroglioblastoma cells, dose confirmation, confirmation (AID 2454); format: functional, cell-based;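 also: H4 neuroglioblastoma cells carrying an alpha-synuclein 5'UTR luciferase reporter; potency for inhibition of the luciferase signal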
[14] = Trypanosoma cruzi growth suppression in host cells – NIH3T3 host cells, beta-gal luminescence, confirmation (AID 2044); format: functional, cell-based;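 also: intracellular parasites grown in NIH/3T3 mouse fibroblasts as host cells; luminescent beta-galactosidase reporter signal from transgenic T. cruzi replicating inside host cells; inhibitors lower the luminescence signal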
[15] = luciferase reporter signal suppression in cells – H4 neuroglioma cells, luminescence, dose response (AID 1990); format: functional, cell-based
[16] = alpha-synuclein stem-loop luciferase translation blockers – H4 neuroglioma cells, luminescence, confirmation (AID 1988); format: functional, cell-based
[17] = Luminescence Cell-Based Dose Confirmation HTS to Identify Inhibitors of Polyadenylation.; format: functional
[18] = biological target: T2, Zinc finger protein mex-5 (Caenorhabditis elegans, UniProt Q9XUB2); experiment: potency of MEX-5 RNA-binding blockers – biochemical, C. elegans, fluorescence polarization, dose response (AID 1960)
T2 sequence (Q9XUB2 whole entry): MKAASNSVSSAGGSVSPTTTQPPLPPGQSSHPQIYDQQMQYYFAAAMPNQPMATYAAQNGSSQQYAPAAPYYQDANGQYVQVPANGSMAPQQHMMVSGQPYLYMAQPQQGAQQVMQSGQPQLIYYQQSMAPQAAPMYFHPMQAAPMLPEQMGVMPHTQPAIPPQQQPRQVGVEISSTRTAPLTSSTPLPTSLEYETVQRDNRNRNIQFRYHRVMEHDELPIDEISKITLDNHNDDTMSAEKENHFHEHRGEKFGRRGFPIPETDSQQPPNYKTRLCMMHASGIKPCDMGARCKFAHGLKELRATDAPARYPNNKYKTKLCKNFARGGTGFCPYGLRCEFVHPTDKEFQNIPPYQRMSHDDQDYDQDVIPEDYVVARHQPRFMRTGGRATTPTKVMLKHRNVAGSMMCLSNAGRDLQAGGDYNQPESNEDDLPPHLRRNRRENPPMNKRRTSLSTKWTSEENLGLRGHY

[19] = biological target: T3, RNA-binding protein pos-1 (Caenorhabditis elegans, UniProt G5EF15); experiment: disruptors of C. elegans POS-1 RNA interaction – biochemical, fluorescence polarization, dose response (AID 1964);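 also: purified POS-1 fused to maltose binding protein made in E. coli; potency of compounds blocking POS-1 binding to fluorescent RNA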
T3 sequence (G5EF15 whole entry): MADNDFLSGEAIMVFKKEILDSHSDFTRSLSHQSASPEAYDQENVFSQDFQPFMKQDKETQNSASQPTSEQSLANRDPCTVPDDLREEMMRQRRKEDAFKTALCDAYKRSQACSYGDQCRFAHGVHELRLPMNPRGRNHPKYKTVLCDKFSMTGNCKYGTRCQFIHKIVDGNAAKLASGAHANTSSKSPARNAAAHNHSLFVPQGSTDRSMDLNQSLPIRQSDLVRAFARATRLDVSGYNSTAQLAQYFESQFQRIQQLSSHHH

Aminopeptidase N = biological target: T4, Aminopeptidase N (Plasmodium falciparum FcB1/Columbia, UniProt O96935); experiment: malaria alanyl aminopeptidase activity blockers – biochemical, fluorogenic H-Leu-NHMec substrate, 1536-well (AID 1445); set-up: species or system Plasmodium falciparum 3D7, 3D7
T4 sequence (O96935 whole entry): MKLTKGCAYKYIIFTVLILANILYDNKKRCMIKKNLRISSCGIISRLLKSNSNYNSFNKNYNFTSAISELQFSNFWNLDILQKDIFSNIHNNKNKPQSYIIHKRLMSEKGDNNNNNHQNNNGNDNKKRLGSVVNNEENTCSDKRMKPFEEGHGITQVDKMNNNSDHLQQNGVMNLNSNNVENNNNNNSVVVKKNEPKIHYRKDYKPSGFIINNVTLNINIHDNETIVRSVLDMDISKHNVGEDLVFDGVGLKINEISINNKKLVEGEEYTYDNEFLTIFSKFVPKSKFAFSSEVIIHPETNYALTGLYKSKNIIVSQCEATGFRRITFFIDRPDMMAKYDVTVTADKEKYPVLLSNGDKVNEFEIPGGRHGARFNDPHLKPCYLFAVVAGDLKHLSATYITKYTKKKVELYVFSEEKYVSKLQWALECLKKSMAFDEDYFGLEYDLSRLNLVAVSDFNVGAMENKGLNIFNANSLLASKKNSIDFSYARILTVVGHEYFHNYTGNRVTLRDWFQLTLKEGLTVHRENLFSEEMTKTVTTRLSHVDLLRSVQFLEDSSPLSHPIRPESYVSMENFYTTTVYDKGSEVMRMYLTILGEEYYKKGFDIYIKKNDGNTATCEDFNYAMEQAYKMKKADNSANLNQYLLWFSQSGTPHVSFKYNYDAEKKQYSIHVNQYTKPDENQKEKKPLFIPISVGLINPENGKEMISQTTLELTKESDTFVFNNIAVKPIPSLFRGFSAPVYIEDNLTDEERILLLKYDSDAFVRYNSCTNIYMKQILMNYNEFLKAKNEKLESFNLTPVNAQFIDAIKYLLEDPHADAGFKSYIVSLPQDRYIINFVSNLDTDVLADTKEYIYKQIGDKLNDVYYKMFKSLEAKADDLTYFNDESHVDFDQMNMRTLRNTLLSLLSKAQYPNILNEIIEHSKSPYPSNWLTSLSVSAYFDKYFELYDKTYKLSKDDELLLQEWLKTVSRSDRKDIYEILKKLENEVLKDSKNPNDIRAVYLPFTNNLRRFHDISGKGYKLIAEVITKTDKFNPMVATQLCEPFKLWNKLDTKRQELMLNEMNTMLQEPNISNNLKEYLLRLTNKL

[20] = biological target: T5, Polyadenylate-binding protein 1 (Homo sapiens, UniProt P11940); experiment: MLLE domain peptide-binding blockers, IC50 – biochemical, fluorescence polarization, FITC-PAM2 peptide, dose response (AID 602259); format: functional; details: read-out: IC50_Mean
[21] = biological target: T5, Polyadenylate-binding protein 1; experiment: MLLE binding blockers, Cy5 peptide tracer – biochemical, fluorescence polarization, Cy5-PAM2 peptide, secondary, miRNA deadenylation inhibitor project, dose response (AID 602260); format: functional; details: read-out: IC50_Mean
Estrogen receptor beta = Estrogen receptor beta (Homo sapiens, UniProt Q92731); experiment: blockers of SRC-3 recruitment to ERβ – biochemical, ELISA, streptavidin-HRP readout, orthogonal assay, confirmation (AID 1060)
Estrogen receptor = biological target: T6, Estrogen receptor (Homo sapiens, UniProt P03372);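 also: potency for inhibiting coactivator peptide recruitment to the receptor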
T6 sequence (P03372 whole entry): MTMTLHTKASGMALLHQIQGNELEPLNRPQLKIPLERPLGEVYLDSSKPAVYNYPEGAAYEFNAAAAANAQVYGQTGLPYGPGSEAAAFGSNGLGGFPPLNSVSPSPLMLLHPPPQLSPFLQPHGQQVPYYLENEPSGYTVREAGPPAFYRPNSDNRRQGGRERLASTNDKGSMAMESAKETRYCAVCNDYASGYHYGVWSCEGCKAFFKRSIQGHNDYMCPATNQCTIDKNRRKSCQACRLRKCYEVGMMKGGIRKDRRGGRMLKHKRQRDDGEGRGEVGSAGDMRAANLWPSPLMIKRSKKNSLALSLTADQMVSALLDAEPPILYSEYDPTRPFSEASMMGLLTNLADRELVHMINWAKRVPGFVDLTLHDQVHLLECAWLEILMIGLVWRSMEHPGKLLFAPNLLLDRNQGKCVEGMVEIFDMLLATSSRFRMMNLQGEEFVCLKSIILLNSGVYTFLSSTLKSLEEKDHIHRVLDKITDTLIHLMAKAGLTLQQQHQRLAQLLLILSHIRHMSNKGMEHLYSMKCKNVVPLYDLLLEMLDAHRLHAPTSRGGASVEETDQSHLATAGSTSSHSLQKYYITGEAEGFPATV

14-3-3 protein gamma = 14-3-3 protein gamma (Homo sapiens, UniProt P61981); experiment: modulators of 14-3-3 gamma client binding – dose response (AID 711); format: functional
[22] = NIH3T3 cell viability loss – ATP luminescence, mouse fibroblasts, counter-screen, dose response (AID 2010); format: functional, cell-based;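 also: cells exposed to compound for about 90 hours before reading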
[23] = loss of viability in HepG2 cells – cell-based, CellTiter-Glo, cherry-picked, cytotoxicity control for Shn3 inhibitor project, dose response (AID 624134); format: functional
[24] = reduction of Shn3 3'UTR-driven luciferase in osteoblasts – cell-based, Clone20 osteoblasts, firefly luciferase, cherry-picked, dose response (AID 624132); format: functional;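 also: firefly luciferase luminescence from reporter carrying the Shn3 3'UTR in osteoblasts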
[25] = Luminescence Cell-Based Dose Retest to Confirm Inhibitors of Cancer Stem Cells. [Related pubchem assays (depositor defined):AID2717, AID2721]; format: functional, Homo sapiens; details: Homo sapiens
[26] = non-specific 3'UTR reporter inhibition in Clone20-Shn3RL – cell-based, Renilla luciferase, cherry-picked, counter-screen for Shn3 inhibitor project, dose response (AID 624133); format: functional
[27] = biological target: 5-hydroxytryptamine receptor 1A (Homo sapiens, UniProt P08908); format: functional
Cytochrome P450 2C19 = Cytochrome P450 2C19 (Homo sapiens, UniProt P33261); experiment: Cytochrome panel assay with activity outcomes. Panel member name: p450-cyp2c19 Compounds with AC50 equal or less than 10 uM are considered active; format: functional; details: read-out: AC50
Cytochrome P450 2C19, sequence (P33261 whole entry): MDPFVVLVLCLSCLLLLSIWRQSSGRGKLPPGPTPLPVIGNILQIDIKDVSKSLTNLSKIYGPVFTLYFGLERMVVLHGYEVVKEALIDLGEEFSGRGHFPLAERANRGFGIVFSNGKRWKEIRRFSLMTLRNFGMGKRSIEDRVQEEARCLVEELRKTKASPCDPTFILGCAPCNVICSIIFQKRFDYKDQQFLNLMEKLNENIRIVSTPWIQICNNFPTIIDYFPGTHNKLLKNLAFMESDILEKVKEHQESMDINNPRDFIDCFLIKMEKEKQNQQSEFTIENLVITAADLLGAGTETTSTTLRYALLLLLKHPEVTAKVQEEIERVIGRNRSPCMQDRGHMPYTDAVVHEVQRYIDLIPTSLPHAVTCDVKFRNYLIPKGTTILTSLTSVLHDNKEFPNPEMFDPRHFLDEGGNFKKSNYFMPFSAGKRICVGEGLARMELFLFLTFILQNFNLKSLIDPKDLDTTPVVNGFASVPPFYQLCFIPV

5-hydroxytryptamine receptor 1A, sequence (P08908 whole entry): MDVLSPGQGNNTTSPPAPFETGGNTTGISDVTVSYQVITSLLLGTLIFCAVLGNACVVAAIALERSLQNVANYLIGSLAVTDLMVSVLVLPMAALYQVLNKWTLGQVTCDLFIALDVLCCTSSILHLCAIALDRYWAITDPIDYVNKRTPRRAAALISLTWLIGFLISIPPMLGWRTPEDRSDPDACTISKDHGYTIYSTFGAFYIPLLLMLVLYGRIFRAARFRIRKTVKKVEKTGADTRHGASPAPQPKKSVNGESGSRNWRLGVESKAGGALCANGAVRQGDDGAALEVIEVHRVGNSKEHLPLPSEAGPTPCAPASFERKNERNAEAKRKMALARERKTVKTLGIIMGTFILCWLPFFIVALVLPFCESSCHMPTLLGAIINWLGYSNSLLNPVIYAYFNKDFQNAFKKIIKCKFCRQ
T5 sequence (P11940 whole entry, the tested form may be a part): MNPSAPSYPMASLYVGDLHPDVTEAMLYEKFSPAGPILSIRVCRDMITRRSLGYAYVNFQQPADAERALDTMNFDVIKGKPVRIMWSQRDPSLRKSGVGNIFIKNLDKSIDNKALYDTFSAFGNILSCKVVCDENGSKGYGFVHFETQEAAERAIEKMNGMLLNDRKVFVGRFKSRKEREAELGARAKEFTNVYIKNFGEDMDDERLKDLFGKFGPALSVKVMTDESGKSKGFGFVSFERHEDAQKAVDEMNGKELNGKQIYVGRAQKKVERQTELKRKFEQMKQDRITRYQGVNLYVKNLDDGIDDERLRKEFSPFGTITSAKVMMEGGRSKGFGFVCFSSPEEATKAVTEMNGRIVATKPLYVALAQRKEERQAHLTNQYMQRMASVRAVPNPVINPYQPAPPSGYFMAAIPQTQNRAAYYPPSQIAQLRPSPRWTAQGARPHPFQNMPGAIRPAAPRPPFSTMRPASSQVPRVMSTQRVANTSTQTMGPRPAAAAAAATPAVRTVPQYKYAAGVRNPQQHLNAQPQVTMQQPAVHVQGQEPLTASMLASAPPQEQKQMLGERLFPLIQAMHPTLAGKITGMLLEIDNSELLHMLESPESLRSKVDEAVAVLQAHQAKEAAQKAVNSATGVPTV
14-3-3 protein gamma, sequence (P61981 whole entry): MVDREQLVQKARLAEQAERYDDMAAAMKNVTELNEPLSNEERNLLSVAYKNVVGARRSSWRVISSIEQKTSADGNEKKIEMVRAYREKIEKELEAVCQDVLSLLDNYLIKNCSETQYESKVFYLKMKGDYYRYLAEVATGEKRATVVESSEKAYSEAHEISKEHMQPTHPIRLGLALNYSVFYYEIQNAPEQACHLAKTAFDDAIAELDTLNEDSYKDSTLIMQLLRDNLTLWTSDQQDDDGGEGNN
Nucleotide-binding oligomerization domain-containing protein 2, sequence (Q9HC29 whole entry, the tested form may be a part): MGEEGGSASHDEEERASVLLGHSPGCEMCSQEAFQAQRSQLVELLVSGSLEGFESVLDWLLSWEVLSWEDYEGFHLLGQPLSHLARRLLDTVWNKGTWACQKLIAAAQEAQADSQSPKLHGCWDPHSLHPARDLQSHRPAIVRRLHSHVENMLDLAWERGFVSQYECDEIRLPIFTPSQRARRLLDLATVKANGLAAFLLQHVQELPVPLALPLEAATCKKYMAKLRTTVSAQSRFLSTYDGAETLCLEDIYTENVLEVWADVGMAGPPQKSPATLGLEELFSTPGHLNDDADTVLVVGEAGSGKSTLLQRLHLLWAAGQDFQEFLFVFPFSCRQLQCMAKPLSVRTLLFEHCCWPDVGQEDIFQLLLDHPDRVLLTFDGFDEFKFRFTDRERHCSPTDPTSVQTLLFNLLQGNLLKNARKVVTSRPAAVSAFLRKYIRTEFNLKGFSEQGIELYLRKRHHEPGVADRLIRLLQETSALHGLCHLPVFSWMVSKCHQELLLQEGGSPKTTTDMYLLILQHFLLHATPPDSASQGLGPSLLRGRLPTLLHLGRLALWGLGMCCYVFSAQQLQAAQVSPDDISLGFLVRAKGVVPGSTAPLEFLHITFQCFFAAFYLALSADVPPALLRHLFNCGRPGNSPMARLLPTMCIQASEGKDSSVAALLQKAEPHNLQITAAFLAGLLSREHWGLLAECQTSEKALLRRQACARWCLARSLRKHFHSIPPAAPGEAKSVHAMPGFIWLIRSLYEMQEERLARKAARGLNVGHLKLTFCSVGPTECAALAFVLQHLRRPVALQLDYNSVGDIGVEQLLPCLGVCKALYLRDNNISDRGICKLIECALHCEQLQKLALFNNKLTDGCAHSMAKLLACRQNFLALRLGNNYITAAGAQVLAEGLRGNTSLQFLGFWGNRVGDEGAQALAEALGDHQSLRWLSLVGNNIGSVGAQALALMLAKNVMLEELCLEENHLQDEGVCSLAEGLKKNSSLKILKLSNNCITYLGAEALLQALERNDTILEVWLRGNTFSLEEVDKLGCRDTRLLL
Estrogen receptor beta, sequence (Q92731 whole entry): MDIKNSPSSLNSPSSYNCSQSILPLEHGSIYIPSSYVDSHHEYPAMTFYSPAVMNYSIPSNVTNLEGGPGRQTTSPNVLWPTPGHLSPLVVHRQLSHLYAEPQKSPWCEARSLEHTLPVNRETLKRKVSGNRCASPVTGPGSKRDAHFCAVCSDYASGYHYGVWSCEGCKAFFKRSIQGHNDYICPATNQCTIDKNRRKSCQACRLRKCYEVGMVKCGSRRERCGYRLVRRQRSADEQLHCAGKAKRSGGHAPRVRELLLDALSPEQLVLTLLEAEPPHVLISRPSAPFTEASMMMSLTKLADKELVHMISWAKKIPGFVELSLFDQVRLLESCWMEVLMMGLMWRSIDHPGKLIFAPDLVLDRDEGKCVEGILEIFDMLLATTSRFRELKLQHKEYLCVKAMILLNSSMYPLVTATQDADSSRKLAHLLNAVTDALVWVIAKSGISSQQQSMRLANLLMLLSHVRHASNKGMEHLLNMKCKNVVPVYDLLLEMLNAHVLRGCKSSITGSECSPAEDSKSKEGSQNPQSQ

Cc1nc2ccc(NC(=O)c3cc(S(=O)(=O)N(C)c4ccccc4)ccc3Cl)cc2s1
AC50 [1]: 2.17 µM (active) | IC50 (HEK293 [2]): 5.43 µM (active) | IC50 (HEK293 [3]): > 20 µM (inactive) | IC50 (HEK293 [4]): 3.91 µM (inactive) | EC50 (HEK293 [5]): 2.55 µM (active) | EC50 [6]: > 20 µM (inactive) | AC50 (INS1): 1.72 µM (active) | IC50 (Galanin receptor type 2): > 42 µM (not active) | IC50 (HEK293 [7]): > 20 µM (inactive)

CC(=O)O[C@H]1C(=O)[C@@]2(C)C([C@H](OC(=O)c3ccccc3)[C@]3(O)C[C@H](OC(=O)[C@H](O)[C@@H](NC(=O)c4ccccc4)c4ccccc4)C(C)=C1C3(C)C)[C@]1(OC(C)=O)CO[C@@H]1C[C@H]2O (some centres undefined)
IC50 [8]: > 80 µM (inactive) | EC50 [9]: 0.268 µM (active) | EC50 (cells [10]): < 0.004 µM (active) | IC50 [11]: 0.0719 µM (active) | EC50 (cells [12]): 0.222 µM (active) | EC50 [13]: 0.279 µM (active) | EC50 [14]: < 0.1 µM (active) | EC50 [15]: < 0.1 µM (active) | EC50 [16]: < 0.1 µM (active)

O=C(NC(=S)Nc1ccc(NC(=O)c2ccco2)cc1)c1ccccc1
EC50 [17]: > 120 µM (not active)

Cc1cc(=O)oc2c(CN3CCC(C)CC3)c(O)c(Cl)cc12
EC50 [18]: > 300 µM (not active) | EC50 [19]: > 300 µM (not active) | IC50 (Aminopeptidase N): 32.7 µM (active) | IC50 [20]: 37.7 µM (inactive) | IC50 [21]: > 66 µM (inactive) | IC50 (Estrogen receptor beta): 5.23 µM (not active) | IC50 (Estrogen receptor): 23.7 µM (active) | IC50 (14-3-3 protein gamma): 45.6 µM (not active)

Cc1cc(Nc2cccc(Cl)c2)nc(NCc2ccccc2)n1
EC50 [22]: > 60 µM (inconclusive) | AC50 [23]: 53 µM (active) | AC50 (INS1): 3.21 µM (active) | IC50 (Galanin receptor type 2): > 42 µM (not active) | AC50 [24]: 1.64 µM (active) | EC50 [14]: 0.177 µM (active) | AC50 [25]: 5.51 µM (active) | AC50 [26]: 6.41 µM (active)

CCCCN(CC)Cc1ccc(CNC(=O)Nc2ccc(OC)cc2OC)o1
EC50 [27]: > 50 µM (not active) | AC50 (Cytochrome P450 2C19): 11.2 µM (inconclusive)

Cn1cccc1Cc1nnc(SCC(=O)NCc2ccccc2Cl)n1-c1ccc(F)cc1
EC50 [17]: > 120 µM (not active)

COc1ccc(N(CC(=O)NC2CCCC2)C(=O)Cn2nnc(-c3ccc(C)cc3)n2)cc1OC
EC50 [27]: > 50 µM (not active)
